Results: PubChem BioAssay AID296 (DTP/NCI, 2004)
Results filed as inconclusive are left out.

System: MX-1 breast xenograft, nude mice, tumor weight T/C
Assay: NCI In Vivo Anticancer Drug Screen. Data for tumor model Human Mammary Carcinoma MX-1 Xenograft (intrarenal inoculation) in NU/NU Swiss (nude) mice
Settings: endpoint: mean tumor weight change, higher = larger tumour
In short: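 Tumor-bearing mice were treated with test compound alongside a vehicle-treated control group. Survival or tumor size was measured, and activity is expressed as the treated-group value divided by the control-group value.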

[1] = dose: 25.0 mg/kg/injection, schedule: Q01DX010 (sc), vehicle: saline
[2] = dose: 300.0 mg/kg/injection, schedule: Q04DX003 (sc), vehicle: saline with Tween-80
[3] = dose: 600.0 mg/kg/injection, schedule: Q04DX003 (sc), vehicle: saline with Tween-80
[4] = dose: 1200.0 mg/kg/injection, schedule: Q04DX003 (sc), vehicle: saline with Tween-80
[5] = dose: 2400.0 mg/kg/injection, schedule: Q04DX003 (sc), vehicle: saline with Tween-80
[6] = dose: 100.0 mg/kg/injection, schedule: Q04DX003 (sc), vehicle: saline

With `N=C(N)Sc1ccccn1` as the compound, how does the T/C [1] read?
Its T/C is 182 % of control.

Which results are given for `CCOC(=O)c1ccc(NC(=O)Nc2nncs2)cc1`?
T/C (dose: 50.0 mg/kg/injection, schedule: Q01DX010 (sc), vehicle: distilled water + Tween-80): 44 % of control; T/C (dose: 100.0 mg/kg/injection, schedule: Q01DX010 (sc), vehicle: saline with Tween-80): 65 % of control; T/C (dose: 200.0 mg/kg/injection, schedule: Q01DX010 (sc), vehicle: saline with Tween-80): 62 % of control; T/C (dose: 400.0 mg/kg/injection, schedule: Q01DX010 (sc), vehicle: saline with Tween-80): 65 % of control; T/C (dose: 800.0 mg/kg/injection, schedule: Q01DX010 (sc), vehicle: distilled water + Tween-80): 120 % of control; T/C (dose: 800.0 mg/kg/injection, schedule: Q01DX010 (sc), vehicle: saline with Tween-80): 37 % of control

Which results are given for `CN(C)C(=O)c1cccc(COc2ccc(N3C(N)=NC(N)=NC3(C)C)cc2Cl)c1`?
T/C (dose: 6.25 mg/kg/injection, schedule: Q01DX010 (sc), vehicle: saline): 104 % of control; T/C (dose: 12.5 mg/kg/injection, schedule: Q01DX010 (sc), vehicle: saline): 118 % of control; T/C [1]: 49 % of control

Which T/C (dose: 150.0 mg/kg/injection, schedule: Q04DX003 (sc), vehicle: saline) does the source give for `O=C(O)C1CC(O)CN1` (configuration not stated) here?
The T/C was 67 % of control.

And the T/C (dose: 300.0 mg/kg/injection, schedule: Q04DX003 (sc), vehicle: saline)?
The T/C was 120 % of control.

And the T/C (dose: 600.0 mg/kg/injection, schedule: Q04DX003 (sc), vehicle: saline)?
Its T/C is 91 % of control.

And the T/C (dose: 1200.0 mg/kg/injection, schedule: Q04DX003 (sc), vehicle: saline)?
The T/C was 106 % of control.

`CC(Oc1ccccc1-c1ccccc1)C(=O)N(C)C` (configuration not stated) was tested. Which T/C [2] did it give?
The T/C was 82 % of control.

And the T/C [3]?
The T/C was 102 % of control.

And the T/C [4]?
Its T/C is 114 % of control.

And the T/C [5]?
The T/C was 60 % of control.

Which T/C (dose: 5.0 mg/kg/injection, schedule: Q04DX003 (sc), vehicle: saline) does the source give for `c1ccc([P+](c2ccccc2)(c2ccccc2)c2ccccc2)cc1` here?
Its T/C is 80 % of control.

And the T/C (dose: 10.0 mg/kg/injection, schedule: Q04DX003 (sc), vehicle: saline)?
The T/C was 69 % of control.

And the T/C (dose: 20.0 mg/kg/injection, schedule: Q04DX003 (sc), vehicle: saline)?
Its T/C is 61 % of control.

Which results are given for `N#CCCSC(=S)C1CCCC1=N` (configuration not stated)?
T/C [2]: 76 % of control; T/C [3]: 87 % of control; T/C [4]: 76 % of control; T/C [5]: 85 % of control

For `CCN1/C(=C/C=C/C=C\C=C\c2sc3ccc4ccccc4c3[n+]2CC)Sc2ccc3ccccc3c21`, which T/C (dose: 100.0 mg/kg/injection, schedule: Q04DX003 (sc), vehicle: saline with Tween-80) is on record?
Its T/C is 104 % of control.

And the T/C (dose: 200.0 mg/kg/injection, schedule: Q04DX003 (sc), vehicle: saline with Tween-80)?
Its T/C is 89 % of control.

And the T/C (dose: 400.0 mg/kg/injection, schedule: Q04DX003 (sc), vehicle: saline with Tween-80)?
The T/C was 101 % of control.

What about the T/C (dose: 800.0 mg/kg/injection, schedule: Q04DX003 (sc), vehicle: saline with Tween-80) of the same compound?
Its T/C is 93 % of control.

`C[C@H](N)C(=O)N[C@@H]1[C@H]2C(=C(O)C[C@@H](O)[C@@H]2O)C(=O)O[C@]1(C)C(Cl)Cl` was tested. Which T/C (dose: 1.5 mg/kg/injection, schedule: Q04DX003 (sc), vehicle: Klucel (hydroxypropylcellulose) (HPC)) did it give?
The T/C was 153 % of control.

And the T/C (dose: 6.0 mg/kg/injection, schedule: Q04DX003 (sc), vehicle: Klucel (hydroxypropylcellulose) (HPC))?
The T/C was 92 % of control.

What does the source list for `c1csc(C[N+]23CN4CN(CN(C4)C2)C3)c1`?
T/C [6]: 108 % of control; T/C (dose: 400.0 mg/kg/injection, schedule: Q04DX003 (sc), vehicle: saline): 93 % of control

For `C[CH2][Ge]1([CH2]C)[CH2]CC2(CCN(CCCN(C)C)C2)C[CH2]1`, which T/C (dose: 12.5 mg/kg/injection, schedule: Q04DX003 (sc), vehicle: saline) is on record?
Its T/C is 72 % of control.

What about the T/C (dose: 25.0 mg/kg/injection, schedule: Q04DX003 (sc), vehicle: saline) of the same compound?
Its T/C is 92 % of control.

And the T/C (dose: 50.0 mg/kg/injection, schedule: Q04DX003 (sc), vehicle: saline)?
The T/C was 72 % of control.

What about the T/C [6] of the same compound?
The T/C was 85 % of control.
